The values that follow come from US11464783B2, “Heterocyclic compounds” (Aligos Therapeutics, Inc., priority 2019, dated 2022).

One may read the EC50 as the concentration needed to bring the measured effect to its halfway point. Low readings indicate an effect from little substance, high ones a need for much substance.

In one experiment the test system is HBV. Put plainly: HBV-DNA Antiviral Assay Using HepG2.2.15 Cells. The experiment is classed as cell-based. Conditions: Hepatitis B virus, HepG2.2.15, 168 h, extracellular HBV DNA by qPCR, day 7. On the procedure:
The following assay procedure describes the HBV antiviral assay. This assay uses HepG2.2.15 cells, which have been transfected with HBV genome, and extracellular HBV DNA quantification as endpoint. Cell viability is assessed in parallel by measuring the intracellular ATP content using the CellTiter-Glo® reagent from Promega.
On day 0, HepG2.2.15 cells were seeded in 96-well plates at a density of 6.0×10^4 cells/well (0.1 mL/well). The cells were incubated at 37° C. and 5% CO2.
On day 1, the test articles were diluted and added to cell culture wells (8 concentrations, 4-fold dilution, in duplicate). GLS4, Tenofovir and Sorafenib were used as reference compounds. 100 μL of culture medium containing the compounds was added to the plate, and the final total volume per well was 200 μL. The final concentration of DMSO in the culture medium was 0.5%. The plate map of compound treatment is shown below. The cells were cultured at 37° C. and 5% CO2 for 3 days.
On day 4, the plates were refreshed with culture media with compounds.
On day 7, cell viability was assessed using the CellTiter-Glo®, and the cell culture supernatants were collected for determination of HBV DNA by qPCR.
Extracellular DNA was isolated with QIAamp 96 DNA Blood Kit per the manufacturer's manual. HBV DNA was then quantified by qPCR with HBV specific primers and probes as specified in Table 1 using the FastStart Universal MasterMix from Roche on an ABI-7900HT. The PCR cycle program consisted of 95° C. for 10 min, followed by 40 cycles at 95° C. for 15 sec and 60° C. for 1 min.
A DNA standard was prepared by dilution of the pAAV2 HBV1.3 plasmid with concentrations ranging from 10 to 1×10^7 copies/uL and used to generate a standard curve by plotting Ct value vs. the concentration of the HBV plasmid DNA standard. The quantity of HBV DNA in each sample was determined by interpolating from the standard curve.
Cell viability was calculated as follows: % Cell viability=(luminescence value of test sample−average luminescence value of blank)/(average luminescence value of 0.5% DMSO control−average luminescence of blank)×100%. HBV DNA inhibition was calculated as follows: 100-(HBV DNA copy number of test sample−HBV DNA copy number of ETV)/HBV DNA copy number of 0.5% DMSO control−HBV DNA copy number of ETV)×100%. The CC50, EC50 and EC90 values were determined by dose-response curves fitted by GraphPad Prism using “log (agonist) vs. response-Variable slope”.
(In general: Quantitative PCR measures a nucleic acid by following its amplification.)
With `O=C(c1ccc(Br)c(Cl)c1)N1CCS(=O)(=O)C(c2cccs2)C1` (stereo not shown) [Compound 6a, (4-bromo-3-chloro-phenyl)-[1,1-dioxo-2-(2-thienyl)-1,4-thiazinan-4-yl]methanone], the 50% effective concentration (EC50) is not above 100 nM.

Consider `O=C(c1ccc(Cl)cc1F)N1CCS(=O)(=O)C(c2cccs2)C1` (stereo not shown) [Compound 10a, (4-chloro-2-fluoro-phenyl)-[1,1-dioxo-2-(2-thienyl)-1,4-thiazinan-4-yl]methanone], for which the EC50 was more than 5000 nM.

In the case of `O=C(c1ccc(Cl)cc1Cl)N1CCS(=O)(=O)C(c2cccs2)C1` (stereo not shown) [Compound 11a, (2,4-dichlorophenyl)-[1,1-dioxo-2-(2-thienyl)-1,4-thiazinan-4-yl]methanone], the EC50 was 500 to 5000 nM.

In the case of `O=C(c1cccc(Cl)c1F)N1CCS(=O)(=O)C(c2cccs2)C1` (stereo not shown) [Compound 14a, (3-chloro-2-fluoro-phenyl)-[1,1-dioxo-2-(2-thienyl)-1,4-thiazinan-4-yl]methanone], the EC50 was more than 5000 nM.

`C[C@@H]1CS(=O)(=O)[C@@H](c2cccs2)CN1C(=O)Nc1ccc(F)c(Cl)c1` [Compound 22, (2R,5R)-N-(3-chloro-4-fluoro-phenyl)-5-methyl-1,1-dioxo-2-(2-thienyl)-1,4-thiazinane-4-carboxamide]: the EC50 is more than 5000 nM.

In the case of `C[C@H]1CS(=O)(=O)[C@H](c2cccs2)CN1C(=O)c1ccc(Br)c(Cl)c1` [Compound 24, (4-bromo-3-chloro-phenyl)-[(2S,5S)-5-methyl-1,1-dioxo-2-(2-thienyl)-1,4-thiazinan-4-yl]methanone], the EC50 is 100 to 500 nM.

Still in this experiment, the particulars now being: extracellular HBV DNA by qPCR, day 7.
Turning to `O=C(c1ccc(Cl)c(Cl)c1)N1CCS(=O)(=O)C(c2cccs2)C1` (single isomer, unassigned) [Compound 8a, (3,4-dichlorophenyl)-[1,1-dioxo-2-(2-thienyl)-1,4-thiazinan-4-yl]methanone], the EC50 lay within 500 to 5000 nM.

With `O=C(c1ccc(Cl)c(Cl)c1)N1CCS(=O)(=O)C(c2cccs2)C1` (single isomer, unassigned) [Compound 8b, (3,4-dichlorophenyl)-[1,1-dioxo-2-(2-thienyl)-1,4-thiazinan-4-yl]methanone], the EC50 fell in the range of 100 to 500 nM.

In the case of `Cc1cc(C(=O)N2CCS(=O)(=O)C(c3cccs3)C2)ccc1Cl` (single isomer, unassigned) [Compound 9a, (4-chloro-3-methyl-phenyl)-[1,1-dioxo-2-(2-thienyl)-1,4-thiazinan-4-yl]methanone], the EC50 is 500 to 5000 nM.

The molecule `Cc1cc(C(=O)N2CCS(=O)(=O)C(c3cccs3)C2)ccc1Cl` (single isomer, unassigned) [Compound 9b, (4-chloro-3-methyl-phenyl)-[1,1-dioxo-2-(2-thienyl)-1,4-thiazinan-4-yl]methanone] yielded an EC50 of 100 to 500 nM.

As for `Cn1cnc(-c2ccc(C3CN(C(=O)c4ccc(Br)c(Cl)c4)CCS3(=O)=O)s2)c1` (single isomer, unassigned) [Compound 16a, (4-bromo-3-chloro-phenyl)-[2-[5-(1-methylimidazol-4-yl)-2-thienyl]-1,1-dioxo-1,4-thiazinan-4-yl]methanone], the EC50 is 100 to 500 nM.

In the case of `Cn1cnc(-c2ccc(C3CN(C(=O)c4ccc(Br)c(Cl)c4)CCS3(=O)=O)s2)c1` (single isomer, unassigned) [Compound 16b, (4-bromo-3-chloro-phenyl)-[2-[5-(1-methylimidazol-4-yl)-2-thienyl]-1,1-dioxo-1,4-thiazinan-4-yl]methanone], the EC50 lay within 500 to 5000 nM.

Molecule `O=C(c1ccc(Br)c(Cl)c1)N1CCS(=O)(=O)C(c2cccs2)C1` (stereo not shown) [Compound 6b, (4-bromo-3-chloro-phenyl)-[1,1-dioxo-2-(2-thienyl)-1,4-thiazinan-4-yl]methanone] gave an EC50 of 100 to 500 nM.
